This is an account of results in patent publication US12509437B2, “Substituted thiophene carboxamides and derivatives thereof as microbicides” (Bayer Aktiengesellschaft, priority 2019, dated 2025).

Assay [1] relates to Xanthomonas campestris pv. campestris. In words: Xanthomonas campestris pv. campestris in vitro cell test. It is filed as cell-based. Particulars: 24 h of incubation, read-out: efficacy (inhibition of bacteria growth; no direct activity); for inhibition at 5 ppm: 5 ppm of active ingredient; for inhibition at 20 ppm: 20 ppm of active ingredient. Summed up: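 Bacteria from liquid pre-culture diluted to set OD in LB broth and exposed to compounds dissolved in DMSO (final ≤1%). After 24 h, growth read by absorbance; inhibition derived relative to compound-free control wells.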

The test system of another assay is Uromyces appendiculatus. In words: In vivo preventive test on Uromyces appendiculatus (bean rust). Particulars: 240 h, sprayed 72 hours before inoculation, evaluated 10 days after inoculation, read-out: efficacy; for pest or weed control at 31 ppm: 31 ppm of active ingredient; for pest or weed control at 125 ppm: 125 ppm of active ingredient; for pest or weed control at 500 ppm: 500 ppm of active ingredient. Summed up: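 Young bean plants sprayed with compound in acetone/DMSO/Tween diluted in water, then inoculated 72 h later with spore suspension. Incubated 24 h at 20° C., 100% RH, then 9 days at 20° C., 70-80% RH. Efficacy scored 10 days post-inoculation, 0% = untreated-control level, 100% = no disease.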

Assay [2] concerns Colletotrichum lindemuthianum. In words: In vivo preventive test on Colletotrichum lindemuthianum (Anthracnose on bean). The settings on record: Colletotrichum lindemuthianum, 144 h, sprayed 72 hours before inoculation, evaluated 6 days after inoculation, read-out: efficacy; for pest or weed control at 31 ppm: 31 ppm of active ingredient; for pest or weed control at 125 ppm: 125 ppm of active ingredient; for pest or weed control at 500 ppm: 500 ppm of active ingredient. Summed up: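 Young bean plants were sprayed with compound in acetone/DMSO/Tween diluted in water, then inoculated 72 h later with C. lindemuthianum spores. Incubation was 24 h at 20 °C/100% RH, then 5 days at 20 °C/90% RH. Efficacy scored 6 days post-inoculation: 0% equals solvent-treated control, 100% means no disease.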

As to `CCOC(=O)C1(NC(=O)c2sc(Cl)c(Cl)c2C)CCC1` [I.047], in assay [1], the inhibition at 5 ppm was at most 30% and the inhibition at 20 ppm was at most 30%. In the assay with Uromyces appendiculatus, the pest or weed control at 31 ppm lay within 80 to 89%, the pest or weed control at 125 ppm fell in the range of 90 to 100% and the pest or weed control at 500 ppm lay within 90 to 100%. For the same molecule, in assay [2], the pest or weed control at 31 ppm lay in the range of 90 to 100%, the pest or weed control at 125 ppm was 90 to 100% and the pest or weed control at 500 ppm lay within 90 to 100%.

In the case of `COC(=O)C(NC(=O)c1sc(Br)c(Br)c1C)C1CC1` (stereo not drawn) [I.032], the inhibition at 5 ppm in assay [1] was at most 30%. In the assay with Uromyces appendiculatus, the pest or weed control at 31 ppm is 90 to 100%, the pest or weed control at 125 ppm fell in the range of 90 to 100% and the pest or weed control at 500 ppm was in the range of 90 to 100%. In addition, in assay [2], the pest or weed control at 500 ppm is 70 to 79%.

As to `COC(=O)C(NC(=O)c1sc(Cl)c(Cl)c1C)C1CC1` (stereo not drawn) [I.081, methyl cyclopropyl{[(4,5-dichloro-3-methyl-2-thienyl)carbonyl]amino}acetate], in assay [1], the inhibition at 5 ppm was at most 30% and the inhibition at 20 ppm is at most 30%. In the assay with Uromyces appendiculatus, the pest or weed control at 125 ppm lay in the range of 90 to 100% and the pest or weed control at 500 ppm was in the range of 90 to 100%. For the same molecule, in assay [2], the pest or weed control at 500 ppm was 80 to 89%.

As to `Cc1c(C(=O)NC(C(=O)O)C2CC2)sc(Cl)c1Cl` (stereo not drawn) [I.095], in assay [1], the inhibition at 5 ppm is at most 30% and the inhibition at 20 ppm is at most 30%. In the assay with Uromyces appendiculatus, the pest or weed control at 31 ppm was in the range of 80 to 89%, the pest or weed control at 125 ppm was 90 to 100% and the pest or weed control at 500 ppm lay in the range of 90 to 100%. Besides, in assay [2], the pest or weed control at 125 ppm fell in the range of 70 to 79%.

On to `Cc1c(C(=O)NC(C(=O)O)C2CC2)sc(Br)c1Br` (stereo not drawn) [I.080, cyclopropyl{[(4,5-dibromo-3-methyl-2-thienyl)carbonyl]amino}acetic acid], for which the inhibition at 5 ppm in assay [1] is at most 30%. The inhibition at 20 ppm in assay [1] was at most 30%. Besides, the pest or weed control at 500 ppm lay in the range of 90 to 100% in the assay with Uromyces appendiculatus and 70 to 79% in assay [2].

Take `Cc1c(C(=S)NC2(C(=O)O)CC2)sc(Cl)c1Cl` [I.060]: in assay [1], the inhibition at 5 ppm is at most 30% and the inhibition at 20 ppm was at most 30%. Further, in the assay on Uromyces appendiculatus, the pest or weed control at 31 ppm lay in the range of 90 to 100%, the pest or weed control at 125 ppm fell in the range of 90 to 100% and the pest or weed control at 500 ppm lay in the range of 90 to 100%. Moreover, the pest or weed control at 125 ppm in assay [2] is 80 to 89%.

As to `CCOC(=O)C(C#N)NC(=O)c1sc(Br)c(Br)c1C` (stereo not drawn) [I.077], in assay [1], the inhibition at 5 ppm was at most 30% and the inhibition at 20 ppm is at most 30%. In the assay on Uromyces appendiculatus, the pest or weed control at 31 ppm lay within 70 to 79%, the pest or weed control at 125 ppm lay within 90 to 100% and the pest or weed control at 500 ppm lay within 90 to 100%. Moreover, in assay [2], the pest or weed control at 31 ppm lay within 80 to 89%, the pest or weed control at 125 ppm is 80 to 89% and the pest or weed control at 500 ppm was in the range of 90 to 100%.

As to `COC(=O)CC[C@H](NC(=O)c1sc(Cl)c(Cl)c1C)C(=O)OC` [I.122], in assay [1], the inhibition at 5 ppm is at most 30% and the inhibition at 20 ppm is at most 30%. Also, the pest or weed control at 500 ppm in the assay on Uromyces appendiculatus fell in the range of 90 to 100%. In assay [2], the pest or weed control at 31 ppm was at least 70%, the pest or weed control at 125 ppm lay in the range of 70 to 79% and the pest or weed control at 500 ppm was in the range of 80 to 89%.
